Experimental data as given in PubChem BioAssay AID256 (DTP/NCI, 2004).
Toxic doses and inconclusive results are not listed. Rule for the calls: active = survival T/C of 150% or more; inactive = T/C below 125% in these data.

Tested on: CD2F1 mice, L1210 leukemia ip, survival T/C
Assay: NCI In Vivo Anticancer Drug Screen. Data for tumor model L1210 Leukemia (intraperitoneal) in CD2F1 (CDF1) mice
Conditions: endpoint: mean survival time, vehicle: saline with Tween-80, higher = longer survival
Summary of the method: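 Compound-dosed mice with transplantable tumor versus matched vehicle controls; endpoint ratio T/C reported.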

[1] = dose: 100.0 mg/kg/injection, schedule: Q01DX009 (ip)
[2] = dose: 200.0 mg/kg/injection, schedule: Q01DX009 (ip)

Measured: T/C

CC(=O)N[C@H](CO)[C@H](O)c1ccc([N+](=O)[O-])cc1
inactive: dose: 75.0 mg/kg/injection, schedule: Q01DX009 (ip) 96 % of control | dose: 150.0 mg/kg/injection, schedule: Q01DX009 (ip) 96 % of control | dose: 300.0 mg/kg/injection, schedule: Q01DX009 (ip) 95 % of control

COC(=O)c1ccccc1C=C(c1ccc([N+](=O)[O-])cc1)c1ccc([N+](=O)[O-])cc1
inactive: [1] 93 % of control | dose: 100.0 mg/kg/injection, schedule: Q04DX003 (ip) 94 % of control | [2] 93 % of control | dose: 200.0 mg/kg/injection, schedule: Q04DX003 (ip) 96 % of control | dose: 400.0 mg/kg/injection, schedule: Q04DX003 (ip) 88 % of control

Cc1ccc(N=Nc2c(N)nc(N)[nH]c2=O)cc1C
inactive: [1] 97 % of control | [2] 97 % of control | dose: 400.0 mg/kg/injection, schedule: Q01DX009 (ip) 99 % of control
